Test results as given in patent publication US20260069626A1, “Compositions and Methods to Protect and Enhance Structural and Functional Integrity of the Intestinal Glycocalyx” (Calroy Health Sciences, LLC, priority 2023, published 2026).

Assays:
[1] = test system: mouse intestinal glycocalyx; assay: DSS-treated mice: WGA-FITC immunofluorescence of colon glycocalyx (Example 3); type: in vivo; details: for Average Florescence Intensity of Mouse Intestinal Glycocalyx after WGA-FITC Staining (AVI): oral mg/kg/day per Table IV: single agents 100, 3′-SL + 6′-SL 100 each, HMOs 50 each + COS 100; for mouse intestinal glycocalyx (FIG. 8, FIG. 9): oral, doses of Table IV
Procedure: Male C57BL/6J mice (18-20 g) of 6 weeks old were housed under controlled conditions with a constant temperature (23±2° C.), stable humidity, and a 12-hour light/dark cycle. After a one-week acclimatization period, the mice were randomly divided into 7 groups, with 5 mice per group: Control, DSS, DSS+3′-SL, DSS+6′-SL, DSS+5-ASA, DSS+6′-SL+3′-SL, and DSS+HMOs+COS. The control group received sterile water for 19 days. The DSS group was given 4% (wt/vol) DSS in their drinking water from days 8-14, with daily oral gavage of sterile water for 11 days. The other groups were treated with 3% DSS in their drinking water from days 8-14, along with oral administration of various functional glycans (mg/kg/day) of COS up to the 19th day (See Experimental Design in Table III). The DSS solution was replaced every two days to maintain its bioactivity. Mouse body weight, stool consistency, and rectal bleeding were monitored daily, alongside observations of coat sheen, mental state, and activity levels.
Immunofluorescence staining of mouse colon tissue was performed using the following procedure. Paraffin sections were prepared from the distal colon, 1 cm from the anus. Deparaffinization and rehydration were performed with xylene and ethanol, as follows: xylene (5 min×2), 100% ethanol (5 min×2), 90% ethanol (5 min×1), 80% ethanol (5 min×1), 70% ethanol (5 min×1), and deionized water (10 s). Endogenous peroxidase activity was quenched with 0.75% hydrogen peroxide for 10 minutes, followed by PBS washes. Antigen retrieval was performed by boiling the sections in 0.01 mol/L sodium citrate for 30 minutes. For WGA staining, sections were incubated overnight at 4° C. with 0.1 μg/μL FITC-WGA in PBS (40 μL per sample). After washing with PBS, nuclei were counterstained with DAPI and sections were mounted with an anti-fade medium. The stained sections were visualized under a fluorescence microscope, and the colonic mucosal glycocalyx was quantified using ImageJ software.

[2] = test system: Caco-2 intestinal epithelial cell glycocalyx; assay: Prevention/repair of DSS damage to Caco-2 glycocalyx, microfluidic chip, WGA-FITC (Example 2); type: cell-based; details: 2% DSS, single agents 200 μg/ml, 6′-SL and 3′-SL each 100 μg/ml, 100 μg/ml COS with 50 μg/ml each of 6′-SL, 2′-FL
Procedure: Using the same microfluidic chip model in Example 1, different functional glycans of RS, COS and hMO, and some combinations were evaluated for their capability to prevent and repair the damages of Caco-2 intestinal epithelial cell glycocalyx caused by DSS. […] In addition to DSS, a positive control of 5-aminosalicylic acid (5-ASA), RS, COS, different hMOS, and a combination of hMOs and COS at different concentrations in phosphate-buffered saline (PBS) with water were introduced into microfluidic chips for testing their effects on the intestinal glycocalyx in the presence of DSS.
FIG. 1 depicts the images of the intestinal epithelial cell glycocalyx and nucleus stained by WGA-FITC individually and together. […] Briefly, 2% DSS caused a significant decrease of intestinal glycocalyx as measured by WGA fluorescence intensity.

[3] = test system: C57BL/6J mice treated with DSS; assay: DSS-treated mice: body weight and Disease Activity Index (Example 3); type: in vivo, mouse; details: oral, doses of Table IV
Procedure: Male C57BL/6J mice (18-20 g) of 6 weeks old were housed under controlled conditions with a constant temperature (23±2° C.), stable humidity, and a 12-hour light/dark cycle. After a one-week acclimatization period, the mice were randomly divided into 7 groups, with 5 mice per group: Control, DSS, DSS+3′-SL, DSS+6′-SL, DSS+5-ASA, DSS+6′-SL+3′-SL, and DSS+HMOs+COS. The control group received sterile water for 19 days. The DSS group was given 4% (wt/vol) DSS in their drinking water from days 8-14, with daily oral gavage of sterile water for 11 days. […] Mouse body weight, stool consistency, and rectal bleeding were monitored daily, alongside observations of coat sheen, mental state, and activity levels. The Disease Activity Index (DAI) was used to assess colitis severity, calculated as the mean of the scores for weight loss, stool consistency, and rectal bleeding as described below. Mice were weighed daily at the same time, with the percentage of weight loss compared to the end of the acclimation period: <1% scored 0; 1-5% scored 1; 5-10% scored 2; 10-20% scored 3; >20% scored 4. Stool consistency was also evaluated daily: normal stool scored 0; soft but formed stool scored 1; paste-like stool scored 2; liquid stool scored 3. […] The DAI was calculated as the average of these three scores. […]

Compound	Average Florescence Intensity of Mouse Intestinal Glycocalyx after WGA-FITC Staining (AVI) [1]	damage of the intestinal glycocalyx caused by DSS (WGA fluorescence intensity, FIG. 1-2) [2]	DAI at the end of the study compared to DSS only (FIG. 6) [3]	body weight at the end of the study compared to DSS only (FIG. 4) [3]	mouse intestinal glycocalyx (FIG. 8, FIG. 9) [1]
Nc1ccc(O)c(C(=O)O)c1 [5-ASA, 5-aminosalicylic acid, reference compound]	2.56	significantly prevented the damage	significantly reduced	significant increase	
CC(=O)N[C@H]1[C@H]([C@H](O)[C@H](O)CO)O[C@@](O[C@H]2[C@@H](O)[C@@H](CO)O[C@@H](O[C@H]3[C@H](O)[C@@H](O)C(O)O[C@@H]3CO)[C@@H]2O)(C(=O)O)C[C@@H]1O (stereo partly drawn) [3′-SL, 3′-sialyllactose]	2.45				increased
CC(=O)N[C@H]1[C@H]([C@H](O)[C@H](O)CO)O[C@@](OC[C@H]2O[C@@H](O[C@H]3[C@H](O)[C@@H](O)[C@H](O)O[C@@H]3CO)[C@H](O)[C@@H](O)[C@H]2O)(C(=O)O)C[C@@H]1O [6′-SL, 6′-sialyllactose]	2.75	significantly prevented the damage			increased
